According to ChEMBL document CHEMBL1681705, “Optimisation of ITK inhibitors through successive iterative design cycles” (Bioorg Med Chem Lett, 2011):

How the values were obtained:
[1] = target: Serine/threonine-protein kinase PLK2 (Homo sapiens) (UniProt Q9NYY3); assay: Inhibition of Snk at 0.1 uM; values are per cent of control
[2] = target: T1, Ephrin type-A receptor 3 (Homo sapiens) (UniProt P29320); assay: Inhibition of EphA3 at 0.1 uM; values are per cent of control
T1 sequence (whole entry): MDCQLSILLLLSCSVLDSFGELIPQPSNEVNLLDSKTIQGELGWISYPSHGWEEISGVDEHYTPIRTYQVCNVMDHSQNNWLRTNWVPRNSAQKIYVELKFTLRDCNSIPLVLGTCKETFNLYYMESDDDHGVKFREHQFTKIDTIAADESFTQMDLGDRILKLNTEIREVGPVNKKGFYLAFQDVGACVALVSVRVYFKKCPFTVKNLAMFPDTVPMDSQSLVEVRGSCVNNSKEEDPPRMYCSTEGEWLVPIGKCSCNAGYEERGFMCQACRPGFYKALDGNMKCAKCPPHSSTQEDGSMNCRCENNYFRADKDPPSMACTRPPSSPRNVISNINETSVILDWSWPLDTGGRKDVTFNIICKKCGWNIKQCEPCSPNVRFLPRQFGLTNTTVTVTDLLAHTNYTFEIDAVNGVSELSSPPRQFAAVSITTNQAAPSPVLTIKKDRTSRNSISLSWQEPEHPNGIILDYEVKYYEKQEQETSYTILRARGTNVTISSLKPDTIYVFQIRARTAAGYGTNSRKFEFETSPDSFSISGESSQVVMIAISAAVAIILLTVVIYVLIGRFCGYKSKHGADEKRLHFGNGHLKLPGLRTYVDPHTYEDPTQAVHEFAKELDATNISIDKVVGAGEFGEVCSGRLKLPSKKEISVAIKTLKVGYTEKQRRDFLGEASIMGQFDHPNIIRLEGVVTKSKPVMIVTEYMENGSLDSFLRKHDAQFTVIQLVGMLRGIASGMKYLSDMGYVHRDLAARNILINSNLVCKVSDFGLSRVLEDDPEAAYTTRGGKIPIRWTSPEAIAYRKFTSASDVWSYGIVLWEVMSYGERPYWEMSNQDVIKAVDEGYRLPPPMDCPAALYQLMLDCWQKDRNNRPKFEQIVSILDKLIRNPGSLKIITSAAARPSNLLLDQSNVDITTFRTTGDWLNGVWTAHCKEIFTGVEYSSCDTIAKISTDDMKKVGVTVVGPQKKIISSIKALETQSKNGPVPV

[3] = target: Ribosomal protein S6 kinase beta-1 (Homo sapiens) (UniProt P23443); assay: Inhibition of p70S6K at 1 uM
[4] = target: Death-associated protein kinase 2 (Homo sapiens) (UniProt Q9UIK4); assay: Inhibition of DAPK2 at 0.1 uM; values are per cent of control
[5] = target: Fibroblast growth factor receptor 4 (Homo sapiens) (UniProt P22455); assay: Inhibition of FGFR4 at 0.1 uM; values are per cent of control
[6] = target: Tyrosine-protein kinase HCK (Homo sapiens) (UniProt P08631); assay: Inhibition of Hck at 0.1 uM; values are per cent of control
[7] = target: T2, Serine/threonine-protein kinase STK11 (Homo sapiens) (UniProt Q15831); assay: Inhibition of LKB1 at 0.1 uM; values are per cent of control
T2 sequence (whole entry): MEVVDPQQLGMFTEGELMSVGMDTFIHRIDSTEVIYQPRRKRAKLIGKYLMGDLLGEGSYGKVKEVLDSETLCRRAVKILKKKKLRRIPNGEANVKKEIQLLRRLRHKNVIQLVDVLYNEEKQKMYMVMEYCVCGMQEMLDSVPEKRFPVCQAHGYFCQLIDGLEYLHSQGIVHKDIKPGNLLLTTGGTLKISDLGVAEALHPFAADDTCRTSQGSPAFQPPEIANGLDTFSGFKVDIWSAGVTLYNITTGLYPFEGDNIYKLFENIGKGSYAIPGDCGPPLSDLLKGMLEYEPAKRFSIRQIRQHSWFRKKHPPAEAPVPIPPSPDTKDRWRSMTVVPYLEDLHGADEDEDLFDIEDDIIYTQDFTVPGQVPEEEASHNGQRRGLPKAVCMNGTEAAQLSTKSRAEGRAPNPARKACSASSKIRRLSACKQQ

[8] = target: T3, Mitogen-activated protein kinase 12 (Homo sapiens) (UniProt P53778); assay: Inhibition of SAPK3 at 0.1 uM; values are per cent of control
T3 sequence (whole entry): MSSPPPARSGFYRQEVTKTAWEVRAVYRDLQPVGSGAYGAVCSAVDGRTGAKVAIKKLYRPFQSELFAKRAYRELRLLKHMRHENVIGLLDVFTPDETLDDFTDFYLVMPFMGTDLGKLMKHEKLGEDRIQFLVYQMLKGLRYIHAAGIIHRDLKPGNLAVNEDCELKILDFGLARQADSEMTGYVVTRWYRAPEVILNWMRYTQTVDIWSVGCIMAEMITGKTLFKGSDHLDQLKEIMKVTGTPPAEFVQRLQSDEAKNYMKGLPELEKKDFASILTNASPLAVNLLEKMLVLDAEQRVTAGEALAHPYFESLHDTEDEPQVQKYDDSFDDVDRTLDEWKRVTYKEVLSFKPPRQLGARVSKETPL

[9] = target: T4, Calcium/calmodulin-dependent protein kinase type IV (Homo sapiens) (UniProt Q16566); assay: Inhibition of CaMK4 at 0.1 uM; values are per cent of control
T4 sequence (whole entry): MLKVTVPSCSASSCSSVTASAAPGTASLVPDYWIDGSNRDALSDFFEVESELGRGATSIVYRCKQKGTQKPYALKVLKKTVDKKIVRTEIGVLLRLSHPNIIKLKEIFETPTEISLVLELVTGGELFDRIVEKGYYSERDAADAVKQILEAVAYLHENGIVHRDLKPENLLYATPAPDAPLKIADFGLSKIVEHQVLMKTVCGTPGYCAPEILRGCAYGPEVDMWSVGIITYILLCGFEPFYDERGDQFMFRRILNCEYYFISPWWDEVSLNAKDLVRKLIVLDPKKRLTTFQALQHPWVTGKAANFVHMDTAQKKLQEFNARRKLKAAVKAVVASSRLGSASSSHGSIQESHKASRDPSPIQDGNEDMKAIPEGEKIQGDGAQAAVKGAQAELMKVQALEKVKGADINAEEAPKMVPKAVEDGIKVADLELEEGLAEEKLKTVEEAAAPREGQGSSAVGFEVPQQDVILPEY

[10] = target: Tyrosine-protein kinase CSK (Homo sapiens) (UniProt P41240); assay: Inhibition of CSK at 1 uM; values are per cent of control
[11] = target: ALK tyrosine kinase receptor (Homo sapiens) (UniProt Q9UM73); assay: Inhibition of ALK at 0.1 uM; values are per cent of control
Sequence of ALK tyrosine kinase receptor (Homo sapiens) (Q9UM73 19-1620 limits assumed): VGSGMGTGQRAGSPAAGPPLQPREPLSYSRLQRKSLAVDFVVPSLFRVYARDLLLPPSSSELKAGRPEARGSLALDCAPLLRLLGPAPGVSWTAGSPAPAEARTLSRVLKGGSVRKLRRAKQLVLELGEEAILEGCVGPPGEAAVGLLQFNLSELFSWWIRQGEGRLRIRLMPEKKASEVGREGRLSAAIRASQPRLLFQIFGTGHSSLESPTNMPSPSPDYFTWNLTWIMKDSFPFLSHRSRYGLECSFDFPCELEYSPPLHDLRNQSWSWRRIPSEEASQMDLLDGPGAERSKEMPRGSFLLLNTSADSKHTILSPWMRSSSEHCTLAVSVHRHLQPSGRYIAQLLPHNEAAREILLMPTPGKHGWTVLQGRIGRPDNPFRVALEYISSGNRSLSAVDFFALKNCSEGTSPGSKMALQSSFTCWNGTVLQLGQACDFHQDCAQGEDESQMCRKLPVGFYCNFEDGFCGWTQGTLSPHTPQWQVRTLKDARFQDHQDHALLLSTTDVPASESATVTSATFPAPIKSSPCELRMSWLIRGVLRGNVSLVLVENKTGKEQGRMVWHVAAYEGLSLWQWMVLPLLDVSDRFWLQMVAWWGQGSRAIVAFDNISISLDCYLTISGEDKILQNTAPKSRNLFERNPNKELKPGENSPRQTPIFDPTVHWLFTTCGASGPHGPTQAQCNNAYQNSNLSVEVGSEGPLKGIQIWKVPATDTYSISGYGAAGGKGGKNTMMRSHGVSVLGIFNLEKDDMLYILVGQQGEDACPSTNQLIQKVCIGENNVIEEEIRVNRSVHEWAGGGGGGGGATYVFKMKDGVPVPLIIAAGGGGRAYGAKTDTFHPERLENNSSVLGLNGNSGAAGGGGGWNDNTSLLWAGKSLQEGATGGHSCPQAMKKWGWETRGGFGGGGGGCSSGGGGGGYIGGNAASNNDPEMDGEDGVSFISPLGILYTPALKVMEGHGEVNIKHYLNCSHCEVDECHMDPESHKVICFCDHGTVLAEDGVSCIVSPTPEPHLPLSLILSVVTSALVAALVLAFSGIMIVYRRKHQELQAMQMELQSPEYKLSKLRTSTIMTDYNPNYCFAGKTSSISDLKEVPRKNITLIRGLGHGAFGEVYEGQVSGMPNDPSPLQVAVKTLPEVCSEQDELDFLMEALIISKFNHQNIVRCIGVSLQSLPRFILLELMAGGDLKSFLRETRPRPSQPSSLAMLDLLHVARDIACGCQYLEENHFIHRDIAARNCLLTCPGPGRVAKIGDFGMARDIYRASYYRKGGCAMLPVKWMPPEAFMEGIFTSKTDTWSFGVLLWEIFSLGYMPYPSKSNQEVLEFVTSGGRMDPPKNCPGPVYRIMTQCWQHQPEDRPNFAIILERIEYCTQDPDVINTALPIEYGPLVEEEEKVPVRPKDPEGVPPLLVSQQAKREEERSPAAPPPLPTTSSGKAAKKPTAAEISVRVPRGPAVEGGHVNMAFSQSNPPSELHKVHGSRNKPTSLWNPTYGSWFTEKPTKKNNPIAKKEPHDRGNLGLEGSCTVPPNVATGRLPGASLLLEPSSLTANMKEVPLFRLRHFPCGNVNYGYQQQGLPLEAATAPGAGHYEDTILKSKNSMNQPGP

Sequence of Tyrosine-protein kinase CSK (Homo sapiens) (P41240 2-450 limits assumed): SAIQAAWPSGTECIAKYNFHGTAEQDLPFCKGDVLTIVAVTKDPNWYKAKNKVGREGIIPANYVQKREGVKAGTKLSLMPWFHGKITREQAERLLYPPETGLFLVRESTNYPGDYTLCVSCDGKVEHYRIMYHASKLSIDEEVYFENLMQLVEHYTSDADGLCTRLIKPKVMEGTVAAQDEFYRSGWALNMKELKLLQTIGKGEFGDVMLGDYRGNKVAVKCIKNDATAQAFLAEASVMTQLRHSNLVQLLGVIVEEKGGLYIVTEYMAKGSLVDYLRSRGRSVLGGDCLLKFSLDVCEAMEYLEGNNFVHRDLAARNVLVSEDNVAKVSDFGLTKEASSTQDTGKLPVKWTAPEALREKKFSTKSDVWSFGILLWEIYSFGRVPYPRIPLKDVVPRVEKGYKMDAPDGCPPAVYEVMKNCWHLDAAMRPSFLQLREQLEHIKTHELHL
Sequence of Ribosomal protein S6 kinase beta-1 (Homo sapiens) (P23443 whole entry, looked up): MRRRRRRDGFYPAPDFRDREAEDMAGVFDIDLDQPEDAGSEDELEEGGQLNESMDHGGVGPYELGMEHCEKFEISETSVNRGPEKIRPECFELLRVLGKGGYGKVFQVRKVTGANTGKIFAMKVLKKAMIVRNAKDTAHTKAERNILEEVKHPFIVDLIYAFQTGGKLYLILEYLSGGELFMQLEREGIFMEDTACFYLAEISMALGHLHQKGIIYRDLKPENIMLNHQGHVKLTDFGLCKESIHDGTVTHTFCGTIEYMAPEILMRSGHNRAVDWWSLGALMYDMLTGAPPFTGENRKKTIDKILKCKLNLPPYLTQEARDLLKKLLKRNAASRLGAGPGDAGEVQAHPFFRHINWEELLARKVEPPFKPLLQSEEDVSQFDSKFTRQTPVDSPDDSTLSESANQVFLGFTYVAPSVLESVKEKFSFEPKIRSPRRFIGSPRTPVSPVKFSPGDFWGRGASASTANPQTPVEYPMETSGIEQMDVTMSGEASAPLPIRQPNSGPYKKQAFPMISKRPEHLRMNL
Sequence of Fibroblast growth factor receptor 4 (Homo sapiens) (P22455 22-802 limits assumed): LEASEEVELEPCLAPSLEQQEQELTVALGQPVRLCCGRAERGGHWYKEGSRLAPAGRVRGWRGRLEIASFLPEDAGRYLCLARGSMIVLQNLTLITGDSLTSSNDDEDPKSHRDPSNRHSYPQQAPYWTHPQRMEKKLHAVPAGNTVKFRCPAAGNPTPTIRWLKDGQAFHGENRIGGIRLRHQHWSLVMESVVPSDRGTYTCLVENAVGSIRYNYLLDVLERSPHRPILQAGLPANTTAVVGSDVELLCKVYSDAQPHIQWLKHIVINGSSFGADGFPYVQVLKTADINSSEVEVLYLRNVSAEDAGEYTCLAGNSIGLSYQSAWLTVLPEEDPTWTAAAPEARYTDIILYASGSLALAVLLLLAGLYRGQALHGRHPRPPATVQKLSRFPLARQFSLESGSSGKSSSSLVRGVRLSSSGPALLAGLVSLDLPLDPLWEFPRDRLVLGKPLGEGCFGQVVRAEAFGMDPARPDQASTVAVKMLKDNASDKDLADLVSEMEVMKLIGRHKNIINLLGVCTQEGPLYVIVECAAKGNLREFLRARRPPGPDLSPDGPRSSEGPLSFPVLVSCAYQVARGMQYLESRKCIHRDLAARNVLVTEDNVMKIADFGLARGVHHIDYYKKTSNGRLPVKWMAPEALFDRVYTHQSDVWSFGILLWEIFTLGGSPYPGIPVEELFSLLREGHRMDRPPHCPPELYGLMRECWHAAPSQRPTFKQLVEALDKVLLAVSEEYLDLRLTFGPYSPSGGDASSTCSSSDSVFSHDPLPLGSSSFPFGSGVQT
Sequence of Tyrosine-protein kinase HCK (Homo sapiens) (P08631 2-526 limits assumed): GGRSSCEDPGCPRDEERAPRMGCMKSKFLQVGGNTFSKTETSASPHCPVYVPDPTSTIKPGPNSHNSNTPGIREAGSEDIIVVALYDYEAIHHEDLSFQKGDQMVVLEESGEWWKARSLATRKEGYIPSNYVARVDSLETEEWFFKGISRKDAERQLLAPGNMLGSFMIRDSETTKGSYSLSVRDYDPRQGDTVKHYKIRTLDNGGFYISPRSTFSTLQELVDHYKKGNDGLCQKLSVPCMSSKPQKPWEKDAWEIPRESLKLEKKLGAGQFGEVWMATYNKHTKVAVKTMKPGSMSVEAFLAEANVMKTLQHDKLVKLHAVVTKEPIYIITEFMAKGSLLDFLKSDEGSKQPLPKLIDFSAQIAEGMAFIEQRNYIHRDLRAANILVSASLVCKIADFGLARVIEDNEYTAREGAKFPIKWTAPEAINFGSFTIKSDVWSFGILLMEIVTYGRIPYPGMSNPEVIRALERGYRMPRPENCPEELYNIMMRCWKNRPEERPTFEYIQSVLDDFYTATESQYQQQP
Sequence of Death-associated protein kinase 2 (Homo sapiens) (Q9UIK4 whole entry, looked up): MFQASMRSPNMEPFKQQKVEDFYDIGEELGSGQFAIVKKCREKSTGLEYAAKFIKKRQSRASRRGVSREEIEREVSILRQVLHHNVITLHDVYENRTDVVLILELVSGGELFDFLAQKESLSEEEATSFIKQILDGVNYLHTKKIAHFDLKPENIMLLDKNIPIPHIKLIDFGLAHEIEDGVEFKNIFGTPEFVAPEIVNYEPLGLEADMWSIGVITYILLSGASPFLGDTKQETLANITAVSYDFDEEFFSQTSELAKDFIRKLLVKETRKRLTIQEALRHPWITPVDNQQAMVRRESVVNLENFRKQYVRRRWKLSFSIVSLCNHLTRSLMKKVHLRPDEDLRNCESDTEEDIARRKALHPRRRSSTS
Sequence of Serine/threonine-protein kinase PLK2 (Homo sapiens) (Q9NYY3 whole entry, looked up): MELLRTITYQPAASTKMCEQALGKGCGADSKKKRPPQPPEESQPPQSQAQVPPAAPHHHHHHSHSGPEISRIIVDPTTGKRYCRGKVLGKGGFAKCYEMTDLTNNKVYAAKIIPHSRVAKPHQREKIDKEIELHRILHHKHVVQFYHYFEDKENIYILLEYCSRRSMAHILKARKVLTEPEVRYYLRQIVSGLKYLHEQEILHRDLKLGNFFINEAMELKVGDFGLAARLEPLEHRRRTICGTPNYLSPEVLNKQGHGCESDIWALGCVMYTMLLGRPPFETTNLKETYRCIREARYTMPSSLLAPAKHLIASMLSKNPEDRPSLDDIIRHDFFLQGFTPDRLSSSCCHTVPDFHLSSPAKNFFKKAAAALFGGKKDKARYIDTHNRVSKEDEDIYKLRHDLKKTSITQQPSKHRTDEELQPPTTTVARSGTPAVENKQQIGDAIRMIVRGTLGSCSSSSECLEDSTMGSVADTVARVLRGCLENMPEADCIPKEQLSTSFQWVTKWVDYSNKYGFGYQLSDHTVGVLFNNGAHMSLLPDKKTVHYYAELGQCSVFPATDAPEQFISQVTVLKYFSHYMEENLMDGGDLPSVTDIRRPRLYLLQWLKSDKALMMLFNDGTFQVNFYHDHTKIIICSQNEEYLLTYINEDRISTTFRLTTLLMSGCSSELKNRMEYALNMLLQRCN

Row | Compound | residual activity [1] [%] | residual activity [2] [%] | inhibition [3] [%] | residual activity [4] [%] | residual activity [5] [%] | residual activity [6] [%] | residual activity [7] [%] | residual activity [8] [%] | residual activity [9] [%] | residual activity [10] [%] | residual activity [11] [%]
1 | Cc1ccc2cc(-c3n[nH]c4ccc(NC5CCNC5)cc34)[nH]c2c1 (configuration not stated) | 90 | 89 | 16 | 91 | 63 | 15 | 104 | 92 | 74 | 56 | 27
2 | Cc1ccc2cc(-c3n[nH]c4ccc(NC5CCN(Cc6ccccc6)CC5)cc34)[nH]c2c1 | 78 | 81 | 10 | 106 | 65 | 61 | 97 | 104 | 109 | 95 | 47
